Results reported in patent publication US20250114374A1, “BCL-2 INHIBITORS” (Newave Pharmaceutical Inc., priority 2021, published 2025).

test system: RS4; 11 with G101V mutation; test: In vitro anti-proliferation assay (ATPlite luminescence) in BCL-2-dependent ALL cell line RS4;11 with G101V mutation; assay type: cell-based; details: Homo sapiens, RS4-11, 72 h; read-out: RS411-G101V IC50
How it was run: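 IC50 came from luminescent ATP quantification (ATPlite) following cell lysis. Compound dose ranges were applied for roughly 72 h to about 1×10^4 G101V-mutant RS4;11 cells per well, in 10% FBS medium.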

Row | SMILES | IC50 [nM]
1 | COc1cc(CN2CCN(C3CC4(CCN(c5ccc(C(=O)NS(=O)(=O)c6cc7c(c([N+](=O)[O-])c6)N[C@H](C6CCOCC6)CO7)c(N6c7cc8cc[nH]c8nc7O[C@H]7COCC[C@@H]76)c5)CC4)C3)[C@H](c3ccccc3OC(C)C)C2)cnc1OC [Example 177, 4-(2-((R)-4-((5,6-dimethoxypyridin-3-yl)methyl)-2-(2-isopropoxyphenyl)piperazin-1-yl)-7-azaspiro[3.5]nonan-7-yl)-N-(((R)-5-nitro-3-(tetrahydro-2H-pyran-4-yl)-3,4-dihydro-2H-benzo[b][1,4]oxazin-7-yl)sulfonyl)-2-((5aS,9aR)-6,7,9,9a-tetrahydro-1H-pyrano[3,4-b]pyrrolo[3′,2′:5,6]pyrido[3,2-e][1,4]oxazin-5(5aH)-yl)benzamide] | 4
2 | Cc1ccccc1[C@@H]1CN([C@@H]2CCCOC2)CCN1C1CC2(CCN(c3ccc(C(=O)NS(=O)(=O)c4cc5c(c([N+](=O)[O-])c4)N[C@H](C4CCOCC4)CO5)c(N4c5cc6cc[nH]c6nc5O[C@H]5COCC[C@@H]54)c3)CC2)C1 [Example 178, N—(((R)-5-nitro-3-(tetrahydro-2H-pyran-4-yl)-3,4-dihydro-2H-benzo[b][1,4]oxazin-7-yl)sulfonyl)-2-((5aS,9aR)-6,7,9,9a-tetrahydro-1H-pyrano[3,4-b]pyrrolo[3′,2′:5,6]pyrido[3,2-e][1,4]oxazin-5(5aH)-yl)-4-(2-((R)-4-((R)-tetrahydro-2H-pyran-3-yl)-2-(o-tolyl)piperazin-1-yl)-7-azaspiro[3.5]nonan-7-yl)benzamide] | 40.9
3 | Cc1ccccc1[C@@H]1CN([C@H]2CCCOC2)CCN1C1CC2(CCN(c3ccc(C(=O)NS(=O)(=O)c4cc5c(c([N+](=O)[O-])c4)N[C@H](C4CCOCC4)CO5)c(N4c5cc6cc[nH]c6nc5O[C@H]5COCC[C@@H]54)c3)CC2)C1 [Example 179, N—(((R)-5-nitro-3-(tetrahydro-2H-pyran-4-yl)-3,4-dihydro-2H-benzo[b][1,4]oxazin-7-yl)sulfonyl)-2-((5aS,9aR)-6,7,9,9a-tetrahydro-1H-pyrano[3,4-b]pyrrolo[3′,2′:5,6]pyrido[3,2-e][1,4]oxazin-5(5aH)-yl)-4-(2-((R)-4-((S)-tetrahydro-2H-pyran-3-yl)-2-(o-tolyl)piperazin-1-yl)-7-azaspiro[3.5]nonan-7-yl)benzamide] | 31.2

Further lines, results first:

Row | IC50 [nM] | SMILES
4 | 46.5 | CC(C)Oc1ccccc1[C@@H]1CN([C@@H]2CCCOC2)CCN1C1CC2(CCN(c3ccc(C(=O)NS(=O)(=O)c4cc5c(c([N+](=O)[O-])c4)N[C@H](C4CCOCC4)CO5)c(N4c5cc6cc[nH]c6nc5O[C@H]5COCC[C@@H]54)c3)CC2)C1 [Example 174, 4-(2-((R)-2-(2-isopropoxyphenyl)-4-((R)-tetrahydro-2H-pyran-3-yl)piperazin-1-yl)-7-azaspiro[3.5]nonan-7-yl)-N-(((R)-5-nitro-3-(tetrahydro-2H-pyran-4-yl)-3,4-dihydro-2H-benzo[b][1,4]oxazin-7-yl)sulfonyl)-2-((5aS,9aR)-6,7,9,9a-tetrahydro-1H-pyrano[3,4-b]pyrrolo[3′,2′:5,6]pyrido[3,2-e][1,4]oxazin-5(5aH)-yl)benzamide]
5 | 67.2 | CC(C)Oc1ccccc1[C@@H]1CN([C@H]2CCCOC2)CCN1C1CC2(CCN(c3ccc(C(=O)NS(=O)(=O)c4cc5c(c([N+](=O)[O-])c4)N[C@H](C4CCOCC4)CO5)c(N4c5cc6cc[nH]c6nc5O[C@H]5COCC[C@@H]54)c3)CC2)C1 [Example 175, 4-(2-((R)-2-(2-isopropoxyphenyl)-4-((S)-tetrahydro-2H-pyran-3-yl)piperazin-1-yl)-7-azaspiro[3.5]nonan-7-yl)-N-(((R)-5-nitro-3-(tetrahydro-2H-pyran-4-yl)-3,4-dihydro-2H-benzo[b][1,4]oxazin-7-yl)sulfonyl)-2-((5aS,9aR)-6,7,9,9a-tetrahydro-1H-pyrano[3,4-b]pyrrolo[3′,2′:5,6]pyrido[3,2-e][1,4]oxazin-5(5aH)-yl)benzamide]
6 | 22.2 | CC(C)Oc1ccccc1[C@@H]1CN(CC2CCOCC2)CCN1C1CC2(CCN(c3ccc(C(=O)NS(=O)(=O)c4cc5c(c([N+](=O)[O-])c4)N[C@H](C4CCOCC4)CO5)c(N4c5cc6cc[nH]c6nc5O[C@H]5COCC[C@@H]54)c3)CC2)C1 [Example 176, 4-(2-((R)-2-(2-isopropoxyphenyl)-4-((tetrahydro-2H-pyran-4-yl)methyl)piperazin-1-yl)-7-azaspiro[3.5]nonan-7-yl)-N-(((R)-5-nitro-3-(tetrahydro-2H-pyran-4-yl)-3,4-dihydro-2H-benzo[b][1,4]oxazin-7-yl)sulfonyl)-2-((5aS,9aR)-6,7,9,9a-tetrahydro-1H-pyrano[3,4-b]pyrrolo[3′,2′:5,6]pyrido[3,2-e][1,4]oxazin-5(5aH)-yl)benzamide]

same assay, conditions: cellular anti-proliferative IC50, about 72 hours, medium with 10% FBS, ATPlite; read-out: RS411-G101V IC50

Row | SMILES | IC50 [nM]
7 | Cc1ccccc1[C@@H]1CN([C@@H]2CCOc3cc(F)c(F)cc32)CCN1C1CC2(CCN(c3ccc(C(=O)NS(=O)(=O)c4cc5c(c([N+](=O)[O-])c4)N[C@H](C4CCOCC4)CO5)c(N4c5cc6cc[nH]c6nc5O[C@H]5COCC[C@@H]54)c3)CC2)C1 [Example 171, 4-{2-[(2R)-4-[(4R)-6,7-difluoro-3,4-dihydro-2H-1-benzopyran-4-yl]-2-(2-methylphenyl)piperazin-1-yl]-7-azaspiro[3.5]nonan-7-yl}-2-[(3R,8S)-2,5-dioxa-9,15,17-triazatetracyclo[8.7.0.0^{3,8}.0^{12,16}]heptadeca-1(10),11,13,16-tetraen-9-yl]-N-[(3R)-5-nitro-3-(oxan-4-yl)-3,4-dihydro-2H-1,4-benzoxazin-7-ylsulfonyl]benzamide] | 220
8 | COc1cc(CN2CCN(C3CC4(CCN(c5ccc(C(=O)NS(=O)(=O)c6cc7c(c([N+](=O)[O-])c6)N[C@H](C6CCOCC6)CO7)c(N6c7cc8cc[nH]c8nc7O[C@H]7COCC[C@@H]76)c5)CC4)C3)[C@H](c3ccccc3C(C)C)C2)cnc1N1CCOC[C@@H]1C [Example 172, 2-[(3R,8S)-2,5-dioxa-9,15,17-triazatetracyclo[8.7.0.0^{3,8}.0^{12,16}]heptadeca-1(10),11,13,16-tetraen-9-yl]-4-{2-[(2R)-2-(2-isopropylphenyl)-4-({5-methoxy-6-[(3S)-3-methylmorpholin-4-yl]pyridin-3-yl}methyl)piperazin-1-yl]-7-azaspiro[3.5]nonan-7-yl}-N-[(3R)-5-nitro-3-(oxan-4-yl)-3,4-dihydro-2H-1,4-benzoxazin-7-ylsulfonyl]benzamide] | 1.4
9 | COc1cc(CN2CCN(C3CC4(CCN(c5ccc(C(=O)NS(=O)(=O)c6cc7c(c([N+](=O)[O-])c6)N[C@H](C6CCOCC6)CO7)c(N6c7cc8cc[nH]c8nc7O[C@H]7COCC[C@@H]76)c5)CC4)C3)[C@H](c3ccccc3C(C)C)C2)cnc1OC [Example 173, 4-{2-[(2R)-4-[(5,6-dimethoxypyridin-3-yl)methyl]-2-(2-isopropylphenyl)piperazin-1-yl]-7-azaspiro[3.5]nonan-7-yl}-2-[(3R,8S)-2,5-dioxa-9,15,17-triazatetracyclo[8.7.0.0^{3,8}.0^{12,16}]heptadeca-1(10),11,13,16-tetraen-9-yl]-N-[(3R)-5-nitro-3-(oxan-4-yl)-3,4-dihydro-2H-1,4-benzoxazin-7-ylsulfonyl]benzamide] | 1
